Results: PMC9237094, “Efficient transdermal delivery of functional protein cargoes by a hydrophobic peptide MTD 1067” (Scientific Reports, 2022)
Where a SMILES comes first, the peptide text is derived from it. [ ]: non-standard residue; d: D form.

How the values were obtained:
[1] = system: artificial skin (EpiDermFT); assay: Skin penetration in artificial skin model, confocal fluorescence intensity; format: in vitro ADME, human; conditions: FITC-labeled (GHRP-6, des(1-3)IGF-I forms) or rhodamine-labeled (PDGF-BB forms), 0.2 mg/mL, 40 μL, 24 h, 32 °C, 5% CO2, at least three images
Experimental: To evaluate skin permeability using confocal microscopy, des(1-3)IGF-I and MTD-des(1-3)IGF-I were labeled with fluorescein isothiocyanate (FITC), and PDGF-BB and MTD-PDGF-BB were labeled with rhodamine. The labeling reaction was carried out with the molar ratio of protein: FITC (or rhodamine) as 1:10 at 4 °C for 2 h. Excess FITC and rhodamine were removed using a PD-10 desalting column (GE Healthcare, USA). After adjusting the concentrations of FITC-labeled GHRP-6, MTD-GHRP-6, des(1-3)IGF-I, MTD-des(1-3)IGF-I, PDGF-BB, and MTD-PDGF-BB to 0.2 mg/mL, respectively, each labeled solution was applied to the artificial skin (EpiDermFT™, MatTek, USA). […] The fluorescence intensity per equivalent area of the dermal layer was calculated for each confocal image. Quantification analysis using fluorescence intensity was calculated based on the fluorescence intensity of confocal microscopy images. Three confocal microscopy images were obtained per each artificial skin, and the fluorescence intensity values were extracted from five areas of the same size per dermis layer in the microscopy images. The relative intensity was calculated by comparing the signals between the samples with and without MTD conjugation.

[2] = system: fibroblast cell line NIH 3T3; assay: Cell proliferation activity, NIH 3T3 cells (MTT); format: cell-based, mouse; conditions: 48 h, absorbance 570 nm, triplicates of at least two independent experiments
Experimental: The cell proliferation activity of PDGF-BB and MTD-PDGF-BB was measured using NIH 3T3 cells, which were cultured in DMEM medium supplemented with 10% Bovine Calf Serum (BCS; Hyclone, USA) in a 96-well plate at 5 × 10^3 cells/well for 24 h. 100 μL of the protein sample, serially diluted with serum-free DMEM medium, was added to each well and cultured at 37 °C for 48 h. After removing the cell culture medium, 100 μL of a mixed solution of 5 mg/mL MTT and serum-free DMEM at a ratio of 1:10 was added to each well. After 4 h of incubation in a CO2 incubator for 4 h, the reaction solution was removed, and 100 μL of DMSO was added to each well. Formazans were sufficiently dissolved in DMSO using a plate shaker to develop a purple color, which was measured at 570 nm using a microplate reader (Spectra Max, Molecular Devices, USA).

Row | Compound | Fluorescence intensity in the dermal layer (permeability) relative to the original cargo [1] | ED50, cell proliferation [2] [µg/mL]
1 | CSCC[C@H](NC(=O)[C@H](CCCNC(=N)N)NC(=O)[C@H](C)NC(=O)[C@H](C)NC(=O)[C@H](C)NC(=O)[C@@H]1CCCN1C(=O)[C@H](C)NC(=O)[C@@H](NC(=O)[C@H](C)NC(=O)[C@H](C)NC(=O)CNC(=O)CNC(=O)[C@H](CCCCN)NC(=O)[C@@H](Cc1ccccc1)NC(=O)[C@H](Cc1c[nH]c2ccccc12)NC(=O)[C@H](C)NC(=O)[C@@H](Cc1c[nH]c2ccccc12)NC(=O)[C@@H](N)Cc1c[nH]cn1)C(C)C)C(=O)O [MTD-GHRP-6] (H-H[dW]AW[dF]KGGAAVAPAAARM-OH) | approximately five | –
2 | PDGF-BB: recombinant human platelet-derived growth factor BB, dimeric protein | – | 0.042
